This is an account of results in PubChem BioAssay (NCI).

“And” between values parts separate entries of the source, which are not always exact repeats. Identical values can stand only once.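 Protocol summary: plate cells (96-well), add compound at 5 concentrations, incubate 48 h, interpolate endpoints linearly. The concentration for 50% growth inhibition is given as GI50. TGI denotes the concentration required for complete inhibition of growth.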

As a reminder, the GI50 is the concentration giving 50% growth inhibition. What is called TGI is the concentration at which net growth stops. Higher therefore signals lower sensitivity of the cells.

This assay deals with MDA-MB-468 breast. The assay is described as follows: DTP human tumour cell line panel, 48 h.
As to `COc1ccc(/C=N\NC(=O)c2ccc3nc(-c4ccc(Br)cc4)[nH]c3c2)cc1`, the GI50 is 2.75 µM and the total growth inhibition concentration (TGI) was determined as 5.97 µM.

With `O=Nc1c(O)c2ccccc2c2ccccc12`, the GI50 was 1.81 µM and the TGI was 3.73 µM.

On to `CCN1C(=O)N(CC)C2C1NN=c1s/c(=C\c3cccc([N+](=O)[O-])c3)c(=O)n12` (configuration not stated), for which the GI50 is 0.375 µM and the concentration for total growth inhibition (TGI) is above 100 µM.

Regarding `CN(C)CCOc1ccc(-c2cc(-c3ccc4c(c3)CC/C4=N\O)c(-c3ccncc3)o2)cc1`, the GI50 is 2.8 µM and the total growth inhibition concentration (TGI) was determined as 6.17 µM.

For the compound `Clc1ccc(N2CCC(N3CCCC3)CC2)cc1-c1nc2ccccc2[nH]1`, the GI50 was 12.1 µM and the total growth inhibition concentration (TGI) came out at 26.3 µM.

As to `CN(C)c1ccc(/C=N/NC(=O)c2cccc3ccccc23)c(Cl)c1`, the GI50 is 0.311 µM and the TGI came out at 2.57 µM.

Take `Cn1c2ccccc2c2nnc(NNCc3ccccn3)nc21`: the GI50 was 0.268 µM and the TGI was 1.16 µM.

As for `Cc1ncc(-c2ccnc(Nc3ccc(S(C)(=O)=O)cc3)n2)n1C(C)C`, the GI50 was 1.12 µM and the concentration for total growth inhibition (TGI) turned out to be 2.93 µM.

With `Cc1cc(O)cc(C)c1/C=C/c1cncc(C(=O)OC(C)(C)C)c1`, the GI50 is 8.41 µM and the TGI was above 25 µM.

In the case of `C[C@]12CC[C@@H]3c4ccc(O)cc4CC[C@H]3[C@@H]1CC[C@@H]2NS(=O)(=O)c1ccc2ccccc2c1`, the GI50 was 3.62 µM and the TGI stood at 15.2 µM.

On to `COc1ccc(-c2nc(-c3nc4ccc(C(F)(F)F)cc4[nH]3)c3ccccn23)cc1`, for which the GI50 was 13.4 µM and the concentration for total growth inhibition (TGI) is above 100 µM.

For the compound `COc1cc(NC(C)CCCN)c2ncccc2c1Sc1ccc(Cl)cc1` (configuration not stated), the GI50 was 1.7 µM and the TGI was 3.11 µM.

Regarding `COC(=O)/C(=C\c1c(-c2ccccc2)[nH]c2ccccc12)S(C)(=O)=O`, the GI50 is 5.4 µM and the TGI turned out to be 84.8 µM.

In the case of `CNC(=O)c1cc2c(Oc3ccc(NC(=S)NC(=O)Cc4ccccc4)cc3F)ccnc2cc1OC`, the GI50 was above 29.9 µM and the TGI is above 100 µM.

Consider `CN(C)c1ccc(C(=C2C=CC(=[N+](C)C)C=C2)c2ccccc2Cl)cc1`, for which the GI50 is 0.22 µM and the TGI was 0.655 µM.

Regarding `Oc1c(CNCCNCc2cc(Cl)cc(Cc3ccccc3)c2O)cc(Cl)cc1Cc1ccccc1`, the concentration for 50% growth inhibition (GI50) was 0.307 µM and the TGI was determined as 4.43 µM.

As for `CC(=O)c1ccc2c(c1)N(CCCN(C)C)c1ccccc1S2`, the GI50 is 10.4 µM and the TGI is 22.8 µM.

`Oc1ccccc1C=Nc1ccccc1N=Cc1ccccc1O.[Cu+2]`: the GI50 was 1.73 µM and the total growth inhibition concentration (TGI) was 13.5 µM.

With `CCCCCSC1C2C(=O)C(Br)=CC13CCNc1c(O)c4c5c(c13)=[N+]2CCC=5C=N4` (configuration not stated), the GI50 was 0.39 µM and the TGI came out at 1.09 µM.

On to `CN1CCN(c2ccc(C(=O)Nc3cccc(C#Cc4cccc5[nH]nc(N)c45)c3)cc2C(F)(F)F)CC1`, for which the GI50 was 0.821 µM and the TGI is 2.39 µM.

Consider `CC1(C)CC(=O)c2c(ccc(C(=O)C[C@@H](N)CO)c2N)O1`, for which the GI50 is 0.561 µM and the TGI was found to be 6.88 µM.

Regarding `O=C(Nc1cccc(-n2cc(-c3ccncc3)c(-c3ccc(O)c(Cl)c3)n2)c1)c1ccc(Cl)c(Cl)c1`, the GI50 was 16.2 µM and the total growth inhibition concentration (TGI) was above 100 µM.

As to `Brc1ccc2[nH]cc(-c3nn4cc(-c5nccs5)nc4s3)c2c1`, the GI50 is 3.26 µM and the total growth inhibition concentration (TGI) was 18.3 µM.

As to `COc1cc(C2C3=C(COC3=O)Nc3cc4c(cc32)OCO4)cc2c1OCO2` (configuration not stated), the GI50 is 0.0559 µM and the TGI was found to be 0.242 µM.

`COc1ccc(Oc2cc(NCCC(F)(F)F)c3ncc(-c4ccc(C(=O)NC5CC5)c(C)c4)n3n2)c(F)c1F`: the GI50 was 3.65 µM and the TGI is above 100 µM.

`COC(=O)[C@@H](OC)[C@@H]1Cc2cc3cc(OC4CC(OC5CC(O)C(O)C(C)O5)C(O)C(C)O4)c(C)c(O)c3c(O)c2C(=O)[C@H]1OC1CC(OC2CC(OC3CC(C)(O)C(O)C(C)O3)C(O)C(C)O2)C(O)C(C)O1` (some centres not stated): the GI50 is 0.0283 µM and the TGI was found to be 0.0713 µM.

For the compound `CC(=O)/C(=C\c1c(-c2ccccc2)[nH]c2ccccc12)S(=O)(=O)c1ccccc1`, the GI50 was 0.987 µM and the TGI turned out to be 14.8 µM.

Take `COc1ccc(C(=O)OC2C(OC3C(O)COC(O[C@H]4C[C@H]5[C@@H]6CC=C7C[C@@H](O)CC[C@]7(C)[C@H]6CC[C@]5(C)[C@H]4[C@H](C)C(=O)CCC(C)C)C3OC(C)=O)OCC(O)C2O)cc1` (some centres not stated): the GI50 was 0.00666 µM and the concentration for total growth inhibition (TGI) amounted to 1.53 µM.

Turning to `CSc1nc(N)c2c(n1)NC(c1ccccc1)C1CCc3ccccc3C1=N2` (configuration not stated), the GI50 was 84.4 µM and the concentration for total growth inhibition (TGI) is above 100 µM.

`COc1ccc2nccc(/C=C/c3ccnc4ccc(OC)cc34)c2c1`: the GI50 is above 100 µM and the total growth inhibition concentration (TGI) is above 100 µM.

For `CCN(Cc1cccc(F)c1F)c1ccc(CO)c(Cl)c1`, the GI50 was below 0.0125 µM and the TGI is 0.035 µM.

For `CNCCCn1c2c(c3ccc(F)cc3c1=O)C(=O)c1cc(OC)cnc1-2`, the GI50 is 0.22 µM and the concentration for total growth inhibition (TGI) came out at 0.66 µM.

Take `COc1ccc(/C(=N/O)c2cc(OC)c(OC)c(OC)c2)c(OC)c1N`: the GI50 was 3.54 µM and the total growth inhibition concentration (TGI) is above 100 µM.

On to `FC(F)(F)c1[nH]ncc1-c1nc2ccc3[nH]ncc3c2c2c1CCCC2`, for which the GI50 was 1.86 µM and the TGI amounted to 4.67 µM.

Turning to `O=C(c1ccccc1O)c1[nH]c(Cl)c(Cl)c1-n1c(C(=O)c2ccccc2O)cc(Cl)c1Cl`, the GI50 is 0.436 µM and 0.339 µM; the TGI is 6.53 µM and 10.4 µM.

Consider `CC1(C)N=C(N)N=C(N)N1c1ccc(Cl)c(Cl)c1`, for which the GI50 was 0.337 µM and the TGI was above 57.5 µM.

For `CC/C=C\C[C@H](O)C/C=C1/C(=O)C=C[C@@H]1C/C=C\CCCC(=O)NC`, the GI50 is 0.94 µM and the TGI was 2.51 µM.

As to `Cc1cc2c(cc1C)[n+](Cc1ccc3ccccc3n1)cn2Cc1ccc2ccccc2n1`, the GI50 was 0.444 µM and the TGI came out at 1.95 µM.

As for `O=C(COc1ccc(-c2nc3cc(Cl)c(Cl)cc3[nH]2)cc1)N=Nc1c(O)[nH]c2ccccc12`, the GI50 is 2.6 µM and the total growth inhibition concentration (TGI) was found to be 6.23 µM.

As for `COc1ccc2[nH]c(O)c(/C=c3/ccc4c(c3)N=C(c3ccc(F)cc3)N=4)c2c1`, the GI50 is 4.14 µM and the total growth inhibition concentration (TGI) came out at 22.3 µM.

Consider `N=C(N)SCc1ccc([N+](=O)[O-])cc1[N+](=O)[O-]`, for which the GI50 was 2.52 µM and the TGI worked out at 8.55 µM.
